The values that follow come from patent publication US20230104311A1, “NOVEL 6-SUBSTITUTED 7-DEAZAPURINES AND CORRESPONDING NUCLEOSIDES AS MEDICAMENTS” (KATHOLIEKE UNIVERSITEIT LEUVEN, priority 2020, published 2023).

Series [1] is described as follows: Cytotoxicity (CC50) determined in parallel in uninfected cells (β-actin toxicity). Conditions: human.
For the next series, the system named is murine norovirus (MNV). As to conditions: read-out: EC50 murine norovirus (MNV) polymerase; cited from earlier work.
The next series concerns human norovirus (HuNoV). Nature of the series: Inhibition of in vitro replication of genogroup 1 NoV in HG23 NoV replicon cells (qRT-PCR of intracellular RNA). The series is classed as cell-based. Conditions: for inhibitory activity against human norovirus (in words): HuNoV assay.
The test system of a further series is HuNoV. As to conditions: human B cell BJAB cell line; read-out: EC50 HuNoV replication; cited from earlier work.
Series [2] concerns HCV. As to conditions: read-out: EC50 HCV in cell cultures; cited from earlier work.
Series [3] deals with HCV. Conditions: anti-HCV in vitro; cited from earlier work.
Another series relates to poliovirus (PV). As to conditions: read-out: IC50 poliovirus (PV) replication; cited from earlier work.
The test system of a further series is dengue virus (DENV2). Conditions: read-out: IC50 dengue virus (DENV2) replication; cited from earlier work.
In series [4] the test system is uninfected cells. Briefly: Cytotoxicity (CC50) determined in parallel in uninfected cells (β-actin toxicity). As to conditions: HuNoV assay.
Series [5] deals with MERS Coronavirus strain EMC. Nature of the series: microbe, parasite or virus in culture. The series is classed as cell-based.
Series [6] has as its system Influenza A virus strain California/07/2009. Nature of the series: Inhibition of in vitro replication of Influenza A virus. The series is classed as cell-based. Conditions: for EC50: Influenza A virus strain California/07/2009.
The next series in a line: in vitro. Conditions: human.
The test system of series [7] is uninfected cells.
The next series relates to norovirus. Conditions: read-out: EC50 norovirus replication; cited from earlier work.
[8] abbreviates: Norovirus, HG23, HuNoV, HG23 NoV replicon cells, read-out: EC50 (effective concentration to inhibit the replication of the virus by 50%).
Setting [9] is: Norovirus, HuNoV, HG23 NoV replicon cells, read-out: EC90 (effective concentration to inhibit the replication of the virus by 90%).
Setting [10] is: Norovirus, HG23, read-out: EC50 (effective concentration to inhibit the replication of the virus by 50%), HuNoV, HG23 NoV replicon cells.
Setting [11] is: HuNoV, HG23 NoV replicon cells, read-out: EC50 (effective concentration to inhibit the replication of the virus by 50%).
Setting [12] is: HuNoV, HG23 NoV replicon cells, read-out: EC90 (effective concentration to inhibit the replication of the virus by 90%).

Structures are written as SMILES. Values joined by “and” are separate entries in the source; they are usually repeats but may differ in a detail not shown here. Identical values can stand only once. “Also recorded” adds a separate entry of the source. Like-named read-outs stand apart in the source and are kept apart here.

Turning to `C[C@@]1(O)[C@H](O)[C@@H](CO)O[C@H]1n1ccc(N)nc1=O` [2’Cmethyl Cytidine, 2′-C-Methyl-cytidine, reference compound], in series [1] (uninfected cells), the CC50 was greater than 25 µM. Further, the figures for the EC50 with murine norovirus (MNV), in the series on human norovirus (HuNoV) (setting [8]) and in the series with HuNoV were 2 µM, 2.63 µM and 0.3 µM, respectively. The EC90 in the series on human norovirus (HuNoV) (setting [9]) amounted to 13.8 µM.

Turning to `C[C@@]1(O)[C@H](O)[C@@H](CO)O[C@H]1c1ccc2c(N)ncnn12` [2′-C-methyl-4-aza-7,9-dideazaadenosine], the EC50 in the series on HCV [2] is 1.98 µM.

With `C[C@@]1(O)[C@H](O)[C@@H](CO)O[C@H]1c1cc(C(N)=O)c2c(N)ncnn12` [7-carboamido analogue 2], the “improvement in potency relative to the parent compound 1” value in the series with HCV [3] is recorded as 40 fold.

On to `Cc1ncnc2c1ccn2[C@@H]1O[C@H](CO)[C@@H](O)[C@H]1O` [Compound 3], for which the concentration for half-maximal inhibition (IC50) in the series on poliovirus (PV) is 0.011 µM; in the series on dengue virus (DENV2), 0.039 µM.

Consider `Cc1ccc(-c2ncnc3c2ccn3[C@@H]2O[C@H](CO)[C@@H](O)[C@H]2O)cc1` [Compound 11a, 6-(4-Methylphenyl)-9-β-D-ribofuranosyl-7-deazapurine], for which the CC50 in series [1] (uninfected cells) is greater than 100 µM. For the same compound, in the series with human norovirus (HuNoV) (setting [9]), the EC90 is greater than 100 µM.

For the compound `Cc1ncnc2c1ccn2[C@@H]1O[C@H](CO)[C@@H](O)[C@H]1O` [Compound 11b, 6-Methyl-9-β-D-ribofuranosyl-7-deazapurine], in series [1] (uninfected cells), the CC50 came to 0.53 µM. In addition, the “inhibitory activity against human norovirus (in words)” value with human norovirus (HuNoV) is “good activity”. Moreover, in the series with human norovirus (HuNoV) (setting [10]), the EC50 turned out to be 0.012 µM. In addition, in the series on human norovirus (HuNoV) (setting [9]), the EC90 is 0.068 µM.

In series [1] (uninfected cells), `CC(C)c1ncnc2c1ccn2[C@@H]1O[C@H](CO)[C@@H](O)[C@H]1O` [Compound 11c, 6-Isopropyl-9-β-D-ribofuranosyl-7-deazapurine] came in with a CC50 greater than 100 µM. In the series with uninfected cells [4], the “cytotoxicity (in words)” value was “did not display significant cytotoxicity; also recorded: without significant cytotoxicity”. In the series on human norovirus (HuNoV), the “inhibitory activity against human norovirus (in words)” value is given as “potent activity”. Besides, in the series on human norovirus (HuNoV) (setting [10]), the EC50 was 0.024 µM. In addition, the EC90 in the series with human norovirus (HuNoV) (setting [9]) worked out at 2.69 µM.

Turning to `CCc1ncnc2c1ccn2[C@@H]1O[C@H](CO)[C@@H](O)[C@H]1O` [Compound 11d, 6-Ethyl-9-β-D-ribofuranosyl-7-deazapurine], the CC50 in series [1] is 10.2 µM; in “in vitro” it was greater than 100 µM. In addition, in the series on uninfected cells [4], the “cytotoxicity (in words)” value is recorded as “did not display significant cytotoxicity”. Also, the “inhibitory activity against MERS Coronavirus (in words)” value in series [5] is “moderate inhibitory activity”. In addition, the EC50 was determined as 9.2 µM in series [5] (Middle East respiratory syndrome-related coronavirus), 0.42 µM in series [6] and 0.023 µM in the series on human norovirus (HuNoV) (setting [10]). The “inhibitory activity against Influenza A virus (in words)” value in series [6] was “moderate inhibitory activity”. Moreover, the EC90 with human norovirus (HuNoV) (setting [9]) was determined as 0.495 µM.

Consider `CCCc1ncnc2c1ccn2[C@@H]1O[C@H](CO)[C@@H](O)[C@H]1O` [Compound 11e, 6-Propyl-9-β-D-ribofuranosyl-7-deazapurine], for which the CC50 in series [1] (uninfected cells) is greater than 100 µM. In the series with uninfected cells [4], the “cytotoxicity (in words)” value is listed as “did not display significant cytotoxicity; also recorded: without significant cytotoxicity”. Besides, the “inhibitory activity against human norovirus (in words)” value in the series on human norovirus (HuNoV) was “potent activity”. The EC50 in the series on human norovirus (HuNoV) (setting [10]) is 0.016 µM. In the series with human norovirus (HuNoV) (setting [9]), the EC90 came out at 19 µM.

Turning to `CCCCCc1ncnc2c1ccn2[C@@H]1O[C@H](CO)[C@@H](O)[C@H]1O` [Compound 11f, 6-Pentyl-9-β-D-ribofuranosyl-7-deazapurine], the CC50 in [1] (uninfected cells) is greater than 100 µM. Besides, the EC50 with human norovirus (HuNoV) (setting [10]) worked out at 0.084 µM. Further, the EC90 with human norovirus (HuNoV) (Norovirus, HG23, read-out: EC90 (effective concentration to inhibit the replication of the virus by 90%)) is greater than 100 µM.

`CCCCCCc1ncnc2c1ccn2[C@@H]1O[C@H](CO)[C@@H](O)[C@H]1O` [Compound 11g, 6-Hexyl-9-β-D-ribofuranosyl-7-deazapurine] had a CC50 in [1] (uninfected cells) of 62.3 µM. The EC50 in the series on human norovirus (HuNoV) (setting [8]) came out at 0.13 µM. Besides, the EC90 in the series with human norovirus (HuNoV) (setting [9]) was determined as 57.6 µM.

In turn, `CC(C)Cc1ncnc2c1ccn2[C@@H]1O[C@H](CO)[C@@H](O)[C@H]1O` [Compound 11i, 6-Isobutyl-9-β-D-ribofuranosyl-7-deazapurine] showed a CC50 in series [1] (uninfected cells) greater than 100 µM. The EC50 with human norovirus (HuNoV) (setting [8]) stood at 0.002 µM. Also, the EC90 in the series on human norovirus (HuNoV) (setting [9]) was greater than 100 µM.

`OC[C@H]1O[C@@H](n2ccc3c(C4CC4)ncnc32)[C@H](O)[C@@H]1O` [Compound 11j, 6-Cycloproyl-9-β-D-ribofuranosyl-7-deazapurine] displayed a CC50 in the series on uninfected cells [7] greater than 100 µM. The EC50 in the series on human norovirus (HuNoV) (setting [11]) was 0.205 µM. Also, the EC90 in the series with human norovirus (HuNoV) (setting [12]) is greater than 100 µM.

With `OC[C@H]1O[C@@H](n2ccc3c(C4CCCC4)ncnc32)[C@H](O)[C@@H]1O` [Compound 11k, 6-Cyclopentyl-9-β-D-ribofuranosyl-7-deazapurine], the CC50 in [1] (uninfected cells) was greater than 100 µM. Further, in the series on human norovirus (HuNoV) (setting [8]), the EC50 was greater than 100 µM. The EC90 with human norovirus (HuNoV) (setting [9]) is greater than 100 µM.

The compound `OC[C@H]1O[C@@H](n2ccc3c(C4CCCCC4)ncnc32)[C@H](O)[C@@H]1O` [Compound 11l, 6-Cyclohexyl-9-β-D-ribofuranosyl-7-deazapurine] came in with a CC50 in series [1] (uninfected cells) of 42.4 µM. Further, the “cytotoxicity (in words)” value in the series on uninfected cells [4] was “did not display significant cytotoxicity; also recorded: without significant cytotoxicity”. Besides, in the series on human norovirus (HuNoV), the “inhibitory activity against human norovirus (in words)” value was “potent activity”. In addition, the EC50 with human norovirus (HuNoV) (setting [11]) and with human norovirus (HuNoV) (setting [10]) was 0.18 µM each time. Moreover, the EC90 in the series with human norovirus (HuNoV) (setting [9]) was 7.24 µM.

In the series with uninfected cells [7], `CC(C)c1ccc(-c2ncnc3c2ccn3[C@@H]2O[C@H](CO)[C@@H](O)[C@H]2O)cc1` [Compound 11m, 6-(4-isoproylphenyl)-9-β-D-ribofuranosyl-7-deazapurine] displayed a CC50 greater than 100 µM. Further, in the series with human norovirus (HuNoV) (setting [11]), the EC50 was 0.002 µM and < 0.001 µM. For the same compound, in the series with human norovirus (HuNoV) (setting [12]), the EC90 worked out at 55 µM.

In series [1] (uninfected cells), `COc1ccc(-c2ncnc3c2ccn3[C@@H]2O[C@H](CO)[C@@H](O)[C@H]2O)cc1` [Compound 11n, 6-(4-Methoxylphenyl)-9-β-D-ribofuranosyl-7-desazapurine] came in with a CC50 greater than 100 µM. The EC50 with human norovirus (HuNoV) (setting [8]) worked out at 0.094 µM. In the series on human norovirus (HuNoV) (setting [9]), the EC90 was greater than 100 µM.

`OC[C@H]1O[C@@H](n2ccc3c(-c4ccccc4)ncnc32)[C@H](O)[C@@H]1O` [Compound 11o, 6-Phenyl-9-β-D-ribofuranosyl-7-deazapurine] had a CC50 in [1] (uninfected cells) greater than 100 µM. Besides, the EC50 in the series on human norovirus (HuNoV) (setting [8]) worked out at 0.211 µM. Further, the EC90 in the series on human norovirus (HuNoV) (setting [9]) stood at 61.9 µM.

In series [1] (uninfected cells), `CN(C)c1ccc(-c2ncnc3c2ccn3[C@@H]2O[C@H](CO)[C@@H](O)[C@H]2O)cc1` [Compound 11p, 6-(4-(Dimethylamino)phenyl)-9-β-D-ribofuranosyl-7-deazapurine] displayed a CC50 greater than 100 µM. In the series on human norovirus (HuNoV) (setting [8]), the EC50 was 92.4 µM. Further, the EC90 in the series on human norovirus (HuNoV) (setting [9]) was greater than 100 µM.

For `CCc1ccc(-c2ncnc3c2ccn3[C@@H]2O[C@H](CO)[C@@H](O)[C@H]2O)cc1` [Compound 11q, 6-(4-Ethylphenyl)-9-β-D-ribofuranosyl-7-deazapurine], in series [1] (uninfected cells), the CC50 is greater than 100 µM. In addition, the EC50 in the series on human norovirus (HuNoV) (setting [8]) is 57.8 µM. For the same compound, the EC90 in the series with human norovirus (HuNoV) (setting [9]) is greater than 100 µM.

Regarding `NC(=O)c1ncn([C@@H]2O[C@H](CO)[C@@H](O)[C@H]2O)n1` [Ribavirin, reference compound], the EC50 is 3.6 µM in [6] and 43 µM in the series with norovirus. For the same compound, in “in vitro”, the CC50 is greater than 1000 µM.
